Assay results: patent US6497886B1, “1,3-bis-(N-lactamyl) propane and the pharmaceutical and cosmetic use thereof” (BASF Aktiengesellschaft, priority 1996, dated 2002)
Converted amounts (≈) assume the structure as drawn.

How the values were obtained:
[1] = Maximum soluble amount of active ingredient in cosolvent:water mixtures and phosphate buffer (Example 6); details: for cosolvent quality mixed with water compared with propylene glycol: for hydrophilic active ingredients such as paracetamol, theophylline or trimethoprim
Description: To 20 ml 1,3-bis(1-pyrrolidonyl)butane was added the active ingredient in an amount which is above the amount of this active ingredient able to dissolve in this volume. It was stirred at room temperature for 72 hours. As a rule, this time ensured that the saturation solubility in the medium was reached. After subsequent filtration, the content of active ingredient in the filtrate was determined by UV photometry.
e) 1,2-Propylene glycol (1,2-PG):water (1:1)
f) 1,2-Propylene glycol (1,2-PG):water (1:3)

[2] = Saturation solubility of active ingredients in 1,3-bis(1-pyrrolidonyl)butane as solvent (Example 5); format: physicochemical; details: 22 °C, organic solvent or mixture, thermodynamic from solid, stirred at room temperature for 72 hours, filtrate by UV photometry, read-out: maximum solubility at 22° C.
Description: It was stirred at room temperature for 72 hours.

[3] = cited from earlier work
[4] = 25% 1,2-PG (1,2-propylene glycol:water 1:3), 20 ml
[5] = 25% DHVP (1,3-bis(1-pyrrolidonyl)butane:water 1:3), 20 ml
[6] = 50% 1,2-PG (1,2-propylene glycol:water 1:1), 20 ml
[7] = 50% DHVP (1,3-bis(1-pyrrolidonyl)butane:water 1:1), 20 ml
[8] = in 20 ml 25% 1,2-PG (1,2-propylene glycol:water 1:3)
[9] = in 20 ml 25% DHVP (1,3-bis(1-pyrrolidonyl)butane:water 1:3)
[10] = in 20 ml 50% 1,2-PG (1,2-propylene glycol:water 1:1)
[11] = in 20 ml 50% DHVP (1,3-bis(1-pyrrolidonyl)butane:water 1:1)
[12] = in 20 ml phosphate buffer pH 7.0
[13] = 25% DHVC (1,3-bis(1-caprolactamyl)butane:water 1:3), 20 ml
[14] = 50% DHVC (1,3-bis(1-caprolactamyl)butane:water 1:1), 20 ml
[15] = in 20 ml 25% DHVC (1,3-bis(1-caprolactamyl)butane:water 1:3)
[16] = in 20 ml 50% DHVC (1,3-bis(1-caprolactamyl)butane:water 1:1)

| Structure (SMILES) | solubility at 72 h [2] [mg/mL] | Solubility [%] [1, 4] [%] | Solubility [%] [1, 5] [%] | Solubility [%] [1, 6] [%] | Solubility [%] [1, 7] [%] | Solubility [%] ([1]; Phosphate buffer pH 7.0, 20 ml) | Dissolved substance [1, 8] [g] | Dissolved substance [1, 9] [g] | Dissolved substance [1, 10] [g] | Dissolved substance [1, 11] [g] | Dissolved substance [1, 12] [g] | further results |
| --- | --- | --- | --- | --- | --- | --- | --- | --- | --- | --- | --- | --- |
| CC(CCN1CCCC1=O)N1CCCC1=O (stereo not drawn) [Example 2, 1,3-Bis-(1-pyrrolidonyl)Butane] | – | – | – | – | – | – | – | – | – | – | – | cosolvent quality mixed with water compared with propylene glycol [1]: better cosolvents |
| C[C@]12C=CC(=O)C=C1CC[C@@H]1[C@@H]2C(=O)C[C@@]2(C)[C@H]1CC[C@]2(O)C(=O)CO [Prednisone] | 200 (≈ 558 mM) | – | – | – | – | – | – | – | – | – | – | – |
| Cn1c(=O)c2[nH]cnc2n(C)c1=O [theophylline] | – | 1.00 | 1.30 | 1.54 | 1.85 | 0.59 | 0.1998 | 0.2609 | 0.3083 | 0.3703 | 0.1172 | Solubility [%] [1, 13]: 1.55%; Solubility [%] [1, 14]: 2.74%; Dissolved substance [1, 15]: 0.3105 g; Dissolved substance [1, 16]: 0.5476 g |
| OCC(O)CO [glycerol] | – | – | – | – | – | – | – | – | – | – | – | miscibility/solubility with fixed oils [3]: not soluble; miscibility with water ([3]; water): miscible |
| CC(CCN1CCCCCC1=O)N1CCCCCC1=O (stereo not drawn) [Example 4, 1,3-Bis-(1-caprolactamyl)Butane] | – | – | – | – | – | – | – | – | – | – | – | cosolvent quality mixed with water compared with propylene glycol [1]: better cosolvents |
| CC(O)CO (stereo not drawn) [propylene glycol] | – | – | – | – | – | – | – | – | – | – | – | miscibility/solubility with fixed oils [3]: immiscible |

Further lines, with some results ahead:

| solubility at 72 h [2] [mg/mL] | Solubility [%] [1, 4] [%] | Solubility [%] [1, 5] [%] | Solubility [%] [1, 6] [%] | Solubility [%] [1, 7] [%] | Solubility [%] ([1]; Phosphate buffer pH 7.0, 20 ml) | Dissolved substance [1, 8] [g] | Dissolved substance [1, 9] [g] | Dissolved substance [1, 10] [g] | Dissolved substance [1, 11] [g] | Dissolved substance [1, 12] [g] | Structure (SMILES) | further results |
| --- | --- | --- | --- | --- | --- | --- | --- | --- | --- | --- | --- | --- |
| 250 (≈ 1650 mM) | 2.77 | 10.62 | 6.46 | 25.15 | 1.36 | 0.5537 | 2.1244 | 1.2914 | 5.0298 | 0.2718 | CC(=O)Nc1ccc(O)cc1 [Paracetamol] | – |
| 190 (≈ 673 mM) | – | – | – | – | – | – | – | – | – | – | CCS(=O)(=O)Oc1ccc2c(C)c(C)c(=O)oc2c1 [Esuprone] | – |
| 150 (≈ 517 mM) | 0.28 | 1.03 | 0.89 | 3.55 | 0.12 | 0.0558 | 0.2063 | 0.1785 | 0.7097 | 0.0245 | COc1cc(Cc2cnc(N)nc2N)cc(OC)c1OC [Trimethoprim] | Solubility [%] [1, 13]: 1.69%; Solubility [%] [1, 14]: 5.09%; Dissolved substance [1, 15]: 0.3382 g; Dissolved substance [1, 16]: 1.0170 g |
| 200 (≈ 783 mM) | – | – | – | – | – | – | – | – | – | – | Nc1ccc(S(=O)(=O)Nc2nccs2)cc1 [Sulfathiazole] | – |
